# Test results from patent US9315494B2, “Alkyl-amide-substituted pyridyl compounds useful as modulators of IL-12, IL-23 and/or IFNα responses” (Bristol-Myers Squibb Company, priority 2012, dated 2016).
# Where two headings read alike, the source gives them in different places.
# Key:
# [1] = tested on: IL-23-stimulated STAT-dependent luciferase reporter in Kit225 T cells; test: Kit225 T cell assay, IL-23 stimulated STAT-dependent luciferase reporter; assay type: cell-based, human
# How it was run: (§1)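 Kit225 T cells carrying a stably integrated STAT-luciferase reporter, in RPMI with 10% heat-inactivated FBS, were stimulated with 20 ng/mL IL-23 or 200 U/mL IFNα for 5-6 h. Readout was luminescence from the luciferase reporter.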
# [2] = tested on: IFNα-stimulated STAT-dependent luciferase reporter in Kit225 T cells; test: Kit225 T cell assay, IFNα stimulated STAT-dependent luciferase reporter; assay type: cell-based, human
# How it was run: as §1
# [3] = Kit225 T cells, 20 ng/mL human recombinant IL-23, 5-6 hours, luciferase, read-out: IL23 (Kit225 T Cell Inhibition Data)
# [4] = Kit225 T cells, 200 U/mL human recombinant IFNα, 5-6 hours, luciferase, read-out: IFNα (Kit225 T Cell Inhibition Data)
"IC50 [1, 3]","IC50 [2, 4]","IC50 ([1]; Homo sapiens, KIT225, read-out: IL23 (Kit225 T Cell Inhibition Data))","IC50 ([2]; Homo sapiens, KIT225, read-out: IFNα (Kit225 T Cell Inhibition Data))",SMILES
188 nM,210 nM,–,–,CNC(=O)c1cnc(Nc2cc(F)ccn2)cc1Nc1cc(F)cc(F)c1OC [Example 137]
504 nM,250 nM,–,–,CNC(=O)c1cnc(Nc2ccc(F)cn2)cc1Nc1ccc(C(=O)N2CCCC2)cc1OC [Example 248]
830 nM,700 nM,–,–,CNC(=O)c1cnc(Nc2ccc(-n3cc(F)ccc3=O)cn2)cc1Nc1ccc(F)cc1OC [Example 126]
120 nM,30 nM,–,–,CNC(=O)c1cnc(Nc2ccc(F)cn2)cc1Nc1cccc(C#N)c1OC [Example 357]
565 nM,540 nM,–,–,CNC(=O)c1cnc(Nc2ccc(F)cn2)cc1Nc1ccc(OC)cc1OC [Example 192]
460 nM,240 nM,–,–,CNC(=O)c1cnc(Nc2ccc(N3CCCC3=O)cn2)cc1Nc1ccccc1S(C)(=O)=O [Example 441]
380 nM,370 nM,–,–,CCN(CC)CCCNc1cc(Nc2cc(Nc3ccccc3S(C)(=O)=O)c(C(=O)NC)cn2)nc(C)n1 [Example 423]
774 nM,410 nM,–,–,CNC(=O)c1cnc(Nc2ccc(F)cn2)cc1Nc1ccccc1C(N)=O [Example 63]
50 nM,20 nM,–,–,CNC(=O)c1cnc(Nc2cc(C)nc(C)n2)cc1Nc1cccc(-c2ncnn2CC(F)(F)F)c1OC [Example 381]
20 nM,20 nM,–,–,[2H]C([2H])([2H])NC(=O)c1cnc(Nc2ccccn2)cc1Nc1cccc(-c2cnn(C)c2)c1OC [Example 398]
904 nM,1300 nM,–,–,CNC(=O)c1cnc(Nc2ccc(F)cn2)cc1Nc1ccc(C(=O)N2CCCC2)cc1 [Example 200]
180 nM,100 nM,–,–,CNC(=O)c1cnc(Nc2cccc(C(F)(F)F)n2)cc1Nc1ccccc1S(C)(=O)=O [Example 16]
433 nM,200 nM,–,–,CNC(=O)c1cnc(Nc2cc(C(=O)NC3CC3)ccn2)cc1Nc1ccc(Cl)cc1OC [Example 259]
1330 nM,500 nM,–,–,CNC(=O)c1cnc(Nc2ccc(F)cn2)cc1Nc1cccnc1OC [Example 313]
2820 nM,2580 nM,–,–,CNC(=O)c1cnc(Nc2ccc(F)cn2)cc1Nc1ccc(N2CCOCC2)cc1OC [Example 187]
8040 nM,8390 nM,–,–,CNC(=O)c1cnc(Nc2ccc(N3CCOCC3)cn2)cc1Nc1cc(S(C)(=O)=O)ccc1OC [Example 222]
376 nM,180 nM,–,–,CNC(=O)c1cnc(Nc2cccc(C#N)n2)cc1Nc1ccccc1S(C)(=O)=O [Example 27]
1620 nM,1720 nM,–,–,CNC(=O)c1cnc(Nc2cc(OC)ccn2)cc1Nc1ccc(F)cc1OC [Example 170]
600 nM,120 nM,–,–,CNC(=O)c1cnc(Nc2cc(C)c(F)cn2)cc1Nc1cccc(C(=O)Nc2ccccc2)c1OC [Example 328]
320 nM,210 nM,–,–,CNC(=O)c1cnc(Nc2cc(C)c(C)nn2)cc1Nc1ccccc1S(C)(=O)=O [Example 415]
183 nM,60 nM,–,–,CNC(=O)c1cnc(Nc2ccccn2)cc1Nc1cc(F)cc(F)c1OC [Example 131]

"IC50 [1, 3]","IC50 [2, 4]","IC50 ([1]; Homo sapiens, KIT225, read-out: IL23 (Kit225 T Cell Inhibition Data))","IC50 ([2]; Homo sapiens, KIT225, read-out: IFNα (Kit225 T Cell Inhibition Data))",SMILES
9.35 nM,3.47 nM,–,–,CNC(=O)c1cnc(Nc2ccc(C#N)cn2)cc1Nc1cccc(-c2ncn(C)n2)c1OC [Example 376]
–,–,6350 nM,4900 nM,CNC(=O)c1cnc(Nc2ccc3ccccc3n2)cc1NC1CCCC1(F)F (centres unmarked) [Example 294]
1240 nM,1460 nM,–,–,CNC(=O)c1cnc(Nc2ccc(F)cn2)cc1Nc1ccc(S(C)(=O)=O)cc1OC [Example 44]
10500 nM,6410 nM,–,–,CNC(=O)c1cnc(Nc2ccc(F)cn2)cc1Nc1ccc(C(=O)NCCc2c[nH]cn2)cc1OC [Example 249]
160 nM,50 nM,–,–,CNC(=O)c1cnc(Nc2ccccn2)cc1Nc1ccccc1S(N)(=O)=O [Example 430]
1340 nM,1170 nM,–,–,CNC(=O)c1cnc(Nc2cc(C(N)=O)ccn2)cc1Nc1cccc(F)c1OC [Example 276]
152 nM,120 nM,–,–,CNC(=O)c1cnc(Nc2ccc(N3CCOCC3)cn2)cc1Nc1ccccc1OC [Example 216]
161 nM,60 nM,–,–,CNC(=O)c1cnc(Nc2ccc(F)cn2)cc1Nc1ccc(Cl)cc1S(C)(=O)=O [Example 11]
50 nM,20 nM,–,–,CNC(=O)c1cnc(Nc2cc(C)c(F)cn2)cc1Nc1cccc(-c2ncn(C)n2)c1OC(F)F [Example 388]
35.2 nM,40 nM,–,–,CNC(=O)c1cnc(Nc2cccc(OC)n2)cc1Nc1ccccc1S(C)(=O)=O [Example 24]
60 nM,20 nM,–,–,CNC(=O)c1cnc(Nc2cc(C)c(F)cn2)cc1Nc1cccc(C(=O)NCc2ccccc2)c1OC [Example 351]
10 nM,10 nM,–,–,"CNC(=O)c1cnc(Nc2cc(C)c(F)cn2)cc1Nc1cccc(-c2nnc(C)[nH]2)c1OC [Example 364, 6-((5-fluoro-4-methylpyridin-2-yl)amino)-4-((2-methoxy-3-(5-methyl-4H-1,2,4-triazol-3-yl)phenyl)amino)-N-methylnicotinamide]"
380 nM,130 nM,–,–,CNC(=O)c1cnc(Nc2cc(C)c(F)cn2)cc1Nc1cccc(C(=O)NCC2CCC2)c1OC [Example 332]
7160 nM,2720 nM,–,–,CCNC(=O)c1cnc(Nc2ccc(F)cn2)cc1Nc1ccccc1OC [Example 296]
200 nM,80 nM,–,–,CNC(=O)c1cnc(Nc2ccc(N3CCOCC3)cn2)cc1Nc1ccc(F)c(F)c1OC [Example 101]
236 nM,260 nM,–,–,CNC(=O)c1cnc(Nc2cccc(F)n2)cc1Nc1ccccc1C(N)=O [Example 74]
742 nM,410 nM,–,–,CNC(=O)c1cnc(Nc2ccc(N3CCCC3=O)cn2)cc1Nc1ccc(F)cc1OCF [Example 142]
747 nM,390 nM,–,–,CNC(=O)c1cnc(Nc2cc3ccccc3cn2)cc1Nc1cc(F)cc(F)c1OC [Example 136]
60 nM,8.77 nM,–,–,[2H]C([2H])([2H])NC(=O)c1cnc(Nc2cc(C)nc(C)n2)cc1Nc1cccc(-c2cnn(C)c2)c1OC [Example 397]
104 nM,100 nM,–,–,CNC(=O)c1cnc(Nc2ccc(Cl)cn2)cc1Nc1ccccc1S(C)(=O)=O [Example 17]
7810 nM,7850 nM,–,–,CNC(=O)c1cnc(Nc2ccc(F)cn2)cc1Nc1ccccc1-c1nnc[nH]1 [Example 186]

"IC50 [1, 3]","IC50 [2, 4]","IC50 ([1]; Homo sapiens, KIT225, read-out: IL23 (Kit225 T Cell Inhibition Data))","IC50 ([2]; Homo sapiens, KIT225, read-out: IFNα (Kit225 T Cell Inhibition Data))",SMILES
783 nM,560 nM,–,–,CNC(=O)c1cnc(Nc2cccc(-c3ccccc3)n2)cc1Nc1cc(F)cc(F)c1OC [Example 143]
100 nM,50 nM,–,–,CNC(=O)c1cnc(Nc2ccc(OC)cn2)cc1Nc1ccccc1S(C)(=O)=O [Example 434]
80 nM,30 nM,–,–,CNC(=O)c1cnc(Nc2cc(C)nc(C)n2)cc1Nc1cccc(-c2ccnn2C)c1OC [Example 394]
1330 nM,970 nM,–,–,CNC(=O)c1cnc(Nc2cc(Cl)ccn2)cc1Nc1ccc(F)cc1OC [Example 153]
398 nM,330 nM,–,–,CNC(=O)c1cnc(Nc2ccc(N3CCCCC3=O)cn2)cc1Nc1ccc(Cl)cc1OC [Example 103]
310 nM,260 nM,–,–,CCOc1ccc(OCC)c(Nc2cc(Nc3ccc(N4CCOCC4)cn3)ncc2C(=O)NC)c1 [Example 229]
81.9 nM,50 nM,–,–,CNC(=O)c1cnc(Nc2cc(C#N)ccn2)cc1Nc1cccc(F)c1OC [Example 173]
1080 nM,900 nM,–,–,CNC(=O)c1cnc(Nc2cc(C(=O)N3CCOCC3)ccn2)cc1Nc1ccc(F)cc1OC [Example 269]
2640 nM,1830 nM,–,–,CNC(=O)c1cnc(Nc2cc(C(N)=O)ccn2)cc1Nc1ccc(F)cc1OC [Example 267]
30 nM,7.74 nM,–,–,CNC(=O)c1cnc(Nc2cc(C)c(F)cn2)cc1Nc1cccc(-c2nnc[nH]2)c1OC [Example 360]
400 nM,440 nM,–,–,CNC(=O)c1cnc(Nc2cc(C)c(F)cn2)cc1Nc1cccc(C(=O)NCCO)c1OC [Example 336]
240 nM,290 nM,–,–,CNC(=O)c1cnc(Nc2cc(NC)nc(C)n2)cc1Nc1cccnc1OC [Example 403]
1040 nM,630 nM,–,–,CNC(=O)c1cnc(Nc2ccc(N3CCOCC3)cn2)cc1Nc1ccccc1C(N)=O [Example 85]
190 nM,160 nM,–,–,CNC(=O)c1cnc(Nc2cccc(F)n2)cc1Nc1cc(F)ccc1S(C)(=O)=O [Example 54]
1060 nM,520 nM,–,–,CNC(=O)c1cnc(Nc2ccccn2)cc1Nc1ccc(F)cc1OC [Example 147]
4.89 nM,3.99 nM,–,–,CNC(=O)c1cnc(Nc2cc(C)c(F)cn2)cc1Nc1cccc(-c2ncn(C)n2)c1OC [Example 371]
343 nM,370 nM,–,–,CNC(=O)c1cnc(Nc2cc3ccccc3cn2)cc1Nc1ccccc1C(N)=O [Example 89]
224 nM,160 nM,–,–,CCOc1c(F)cc(F)cc1Nc1cc(Nc2ccc(N3CCOCC3)cn2)ncc1C(=O)NC [Example 230]
794 nM,420 nM,–,–,CNC(=O)c1cnc(Nc2ccc(C#N)cn2)cc1Nc1cc(F)cc(F)c1OC [Example 145]
369 nM,230 nM,–,–,CNC(=O)c1cnc(Nc2cccc(OC)n2)cc1Nc1ccc(Cl)cc1OC [Example 108]
220 nM,140 nM,–,–,CNC(=O)c1cnc(Nc2cc(C#N)ccn2)cc1Nc1cc(F)ccc1S(C)(=O)=O [Example 58]

SMILES,"IC50 [1, 3]","IC50 [2, 4]","IC50 ([1]; Homo sapiens, KIT225, read-out: IL23 (Kit225 T Cell Inhibition Data))","IC50 ([2]; Homo sapiens, KIT225, read-out: IFNα (Kit225 T Cell Inhibition Data))"
CNC(=O)c1cnc(Nc2cc(C)ccn2)cc1Nc1ccccc1S(C)(=O)=O [Example 4],36 nM,30 nM,–,–
